Columns and labels:
[1] = test system: basal cells and pyramidal cells of the airway epithelium; assay: miRNA expression in sorted basal cells versus pyramidal cells (ciliated + secretory), HTS and Agilent chips; parameters: species or system human; details: for Modulation of expression of the miRNAs in pyramidal cells (323(−)) relative to basal cells 323(+): HTS and Agilent chips; for Intensity of the level of expression in log2 in pyramidal cells (323(−)): pyramidal cells (ciliated + secretory)
Experimental: After dissociation of the stroma of nasal polyps, the epithelial cells (about 20.10^6) are incubated in PBS-BSA-EDTA for 30 min and then incubated with labeled antibody CD151-PE and anti-TF (tissue factor)-FITC for 20 min, 4° C. (see Hajj, R. et al., Stem Cells 25, 139-148 (2007)). After washing twice, the cells are taken up in PBS-EDTA and incubated with DAPI for labeling the cells whose integrity has been altered.
Cell sorting was carried out on the FACSAria sorter (BD Biosciences) equipped with 3 lasers, blue, red and violet. Dead cells, aggregates and double cells were excluded. The doubly positive population of basal cells (CD151+/FT+) and the negative population of cylindrical cells (containing ciliated cells and mucus-secreting cells) (CD151−/FT−) were selected and sorted at a rate of 5000 events/s ([…]). The purity and identity of the sorted cells were then verified by cytometry and immunocytochemistry.
Like the native airway epithelium, the model of differentiation in vitro used in these tests consists of basal cells, ciliated cells and mucus-secreting cells. In order to identify the repertoires of the miRNAs specific to each of the cellular types, the inventors used cell sorting by flow cytometry by means of specific markers (Hajj, R. et al. 2007). Using this technique, adult airway progenitor cells (corresponding a priori to basal cells) were isolated, selected and sorted (such cells appear doubly positive for tetraspanin CD151 and for the tissue factor) from the pyramidal cells (i.e. ciliated cells and mucus-secreting cells) which appear negative for these same markers. These were purified from polyps or from nasal conchae obtained from 3 separate donors.
After extracting the total RNAs, the expression profiles of the miRNAs were established by means of Agilent® commercial chips or by high-throughput sequencing (HTS). […] For the first time, the inventors thus attribute a repertoire of expression of the miRNAs specifically to separate cellular types of the airway epithelium during differentiation.

[2] = test system: human airway epithelial cells (HAECs); assay: High-throughput sequencing (HTS) of miRNAs at four stages of differentiation of HAECs; details: for Modulation (ratio of the level of intensity of expression in log2 in two stages of differentiation) measured by high-throughput sequencing, D7 − D0 / Modulation (ratio of the level of intensity of expression in log2 in two stages of differentiation) measured by high-throughput sequencing, FC − D7 / Modulation (ratio of the level of intensity of expression in log2 in two stages of differentiation) measured by high-throughput sequencing, WD − D0 / Modulation (ratio of the level of intensity of expression in log2 in two stages of differentiation) measured by high-throughput sequencing, WD − FC / Level of intensity of expression in log2 measured by high-throughput sequencing, D0 / Level of intensity of expression in log2 measured by high-throughput sequencing, D7 / Level of intensity of expression in log2 measured by high-throughput sequencing, FC / Level of intensity of expression in log2 measured by high-throughput sequencing, WD: Table VI; for Level of intensity of expression in log2 At the differentiated stage (WD) measured in HTS: healthy human airway epithelial tissue; for Level of intensity of expression in log2 measured by high-throughput sequencing, D0: stage D0; for Level of intensity of expression in log2 measured by high-throughput sequencing, D7: stage D7; for Level of intensity of expression in log2 measured by high-throughput sequencing, FC: stage FC; for Level of intensity of expression in log2 At the differentiated stage (WD) measured in HTS / Level of intensity of expression in log2 measured by high-throughput sequencing, WD: stage WD
From the text: The total RNAs were extracted from HAECs cultivated at the air-liquid interface at four stages of differentiation: ALI-D0 (0 day), ALI-D7 (7 days), ALI-FC (during appearance of the first cilia at about 14 days) and ALI-WD (wholly differentiated at about 21 days). The cells are lysed in reagent with Trizol® (Invitrogen). The total RNAs containing small RNAs and microRNAs are purified on Qiagen RNEasy columns (Qiagen) according to the supplier's instructions.
The total RNAs containing small RNAs and microRNAs are isolated as before. The procedure is based on the Applied Biosystems Ligase-Enhanced Genome Detection technology (LEGenD™); the SOLiD™ Small RNA Expression kit (Applied Biosystems, France) was used. With this method it is possible to convert the small RNAs of a sample into a library of double-stranded DNA; it was developed by Applied Biosystems SOLiD™ System for a new generation of high-throughput sequencing.
The high-throughput sequencing of the microRNAs was carried out according to the supplier's recommendations. Briefly, the total RNAs containing the small RNAs are hybridized (65° C., 10 min, then at 16° C., 5 min) and ligated (16° C., 2-16 h in a thermocycler) with the Adaptor Mix A for producing a matrix for sequencing the 5′ end of the small RNAs, or with the Adaptor Mix B for sequencing the 3′ end. The samples are then reverse-transcribed (42° C., 30 min) to synthesize the complementary DNA (cDNA). The library of small RNAs is amplified by PCR and after migration on polyacrylamide gel the amplified small RNAs are cut out and extracted from the gel according to their size (length of about 105-150 bases, according to the supplier's instructions), eluted and resuspended in nuclease-free water. The concentration of nucleic acids is then measured and normalized before proceeding with preparation of the samples for sequencing.
For each microRNA sequenced, the number of sequences of the 5p strand and of the 3p strand of the microRNA was normalized to 10^6 sequences and converted to percentage abundance of expression for each of the microRNAs. The data were then normalized according to a linear model and an empirical Bayesian method using software R. For subsequent analyses, only the microRNAs were retained for which the percentage expression (or abundance) is greater than 1% of the total of the microRNAs in at least one culture condition, with a |Log2 Ratio| below 0.5 and an adjusted P-value below 0.05.

[3] = test system: human airway epithelial cells (HAECs); assay: Agilent miRNA chips, miRNA expression at four stages of differentiation of HAECs; details: for Modulation (ratio of the level of intensity of expression in log2 in two stages of differentiation) measured with the Agilent chips, D7 − D0 / Modulation (ratio of the level of intensity of expression in log2 in two stages of differentiation) measured with the Agilent chips, FC − D7 / Modulation (ratio of the level of intensity of expression in log2 in two stages of differentiation) measured with the Agilent chips, WD − D0 / Modulation (ratio of the level of intensity of expression in log2 in two stages of differentiation) measured with the Agilent chips, WD − FC / Level of intensity of expression in log2 measured with the Agilent chips, D0 / Level of intensity of expression in log2 measured with the Agilent chips, D7 / Level of intensity of expression in log2 measured with the Agilent chips, FC / Level of intensity of expression in log2 measured with the Agilent chips, WD: Table VI; for Modulation (ratio of the level of intensity of expression in log2 at two stages of differentiation), FC − D7 / Modulation (ratio of the level of intensity of expression in log2 at two stages of differentiation), WD − FC: Agilent miRNA chips, Table V; for Level of intensity of expression in log2 measured with the Agilent chips, D0: stage D0; for Level of intensity of expression in log2 measured with the Agilent chips, D7: stage D7; for Level of intensity of expression in log2 measured with the Agilent chips, FC: stage FC; for Level of intensity of expression in log2 measured with the Agilent chips, WD: stage WD
From the text: In parallel with the high-throughput sequencing of the microRNAs, the repertoire of expression of the microRNAs (microRNAome) is investigated using the technology of Agilent® microRNA chips. For this, RNA samples from the same patients as before were used, labeled and hybridized on Agilent® miRNA chips (Human miRNA Microarray v2, containing 866 human miRNAs and 89 human viral miRNAs, i.e. all the human miRNAs contained and referenced in Sanger miRBase v.12.0, Agilent Technologies, France) using the “miRNA labeling and hybridization” kit, following the supplier's instructions (Agilent Technologies).
The inventors then used the Agilent miRNA chips to investigate the repertoire of expression of the miRNAs of the human airway epithelium and compare the results obtained in high-throughput sequencing with those obtained with Agilent® commercial miRNA chips.

Row | Substance | Modulation of expression of the miRNAs in pyramidal cells (323(−)) relative to basal cells 323(+) [1] | Intensity of the level of expression in log2 in basal cells (323(+)) [1] [log2] | Intensity of the level of expression in log2 in pyramidal cells (323(−)) [1] [log2] | Modulation (ratio of the level of intensity of expression in log2 in two stages of differentiation) measured by high-throughput sequencing, D7 − D0 [2] [log2] | Modulation (ratio of the level of intensity of expression in log2 in two stages of differentiation) measured by high-throughput sequencing, FC − D7 [2] [log2] | Modulation (ratio of the level of intensity of expression in log2 in two stages of differentiation) measured by high-throughput sequencing, WD − D0 [2] [log2] | Modulation (ratio of the level of intensity of expression in log2 in two stages of differentiation) measured by high-throughput sequencing, WD − FC [2] [log2] | Level of intensity of expression in log2 At the differentiated stage (WD) measured in HTS [2] [log2] | Level of intensity of expression in log2 measured by high-throughput sequencing, D0 [2] [log2] | Level of intensity of expression in log2 measured by high-throughput sequencing, D7 [2] [log2] | Level of intensity of expression in log2 measured by high-throughput sequencing, FC [2] [log2] | Level of intensity of expression in log2 measured by high-throughput sequencing, WD [2] [log2] | Modulation (ratio of the level of intensity of expression in log2 in two stages of differentiation) measured with the Agilent chips, D7 − D0 [3] [log2] | Modulation (ratio of the level of intensity of expression in log2 in two stages of differentiation) measured with the Agilent chips, FC − D7 [3] [log2] | Modulation (ratio of the level of intensity of expression in log2 in two stages of differentiation) measured with the Agilent chips, WD − D0 [3] [log2] | Modulation (ratio of the level of intensity of expression in log2 in two stages of differentiation) measured with the Agilent chips, WD − FC [3] [log2] | Level of intensity of expression in log2 measured with the Agilent chips, D0 [3] [log2] | Level of intensity of expression in log2 measured with the Agilent chips, D7 [3] [log2] | Level of intensity of expression in log2 measured with the Agilent chips, FC [3] [log2] | Level of intensity of expression in log2 measured with the Agilent chips, WD [3] [log2] | also measured
1 | hsa-miR-16: human miRNA, SEQ ID No. 10 (UAGCAGCACGUAAAUAUUGGCG; expressed or natural sequence; listed as Homo sapiens) | −0.48 | 9.10 | 8.62 | 2.01 | −1.17 | 2.22 | 1.38 | 5.35 | 3.13 | 5.14 | 3.97 | 5.35 | 2.07 | −0.36 | 1.59 | −0.11 | 9.47 | 11.54 | 11.18 | 11.06 | Modulation (ratio of the level of intensity of expression in log2 at two stages of differentiation), FC − D7 [3]: −0.36 log2; Modulation (ratio of the level of intensity of expression in log2 at two stages of differentiation), WD − FC [3]: −0.11 log2
2 | hsa-miR-17: human miRNA, SEQ ID No. 11 (CAAAGUGCUUACAGUGCAGGUAG; expressed or natural sequence; listed as Homo sapiens) | −2.60 | 6.64 | 4.04 | −0.17 | −0.87 | −1.24 | −0.20 | 11.61 | 12.85 | 12.68 | 11.81 | 11.61 | 0.31 | −1.14 | −1.22 | −0.39 | 9.03 | 9.34 | 8.19 | 7.81 | Modulation (ratio of the level of intensity of expression in log2 in two stages of differentiation), D7 − D0 ([2]; HTS): −0.17 log2; Modulation (ratio of the level of intensity of expression in log2 in two stages of differentiation), FC − D7 ([2]; HTS): −0.87 log2; Modulation (ratio of the level of intensity of expression in log2 in two stages of differentiation), WD − FC ([2]; HTS): −0.20 log2; Abundance (%), D0 ([2]; HTS, ALI-D0): 1.61%; Abundance (%), D7 ([2]; HTS, ALI-D7): 1.44%; Abundance (%), FC ([2]; HTS, ALI-FC): 0.76%; Abundance (%), WD ([2]; HTS, ALI-WD): 0.50%
3 | hsa-miR-22: human miRNA, SEQ ID No. 23 (AAGCUGCCAGUUGAAGAACUGU; expressed or natural sequence; listed as Homo sapiens) | −1.73 | 8.81 | 7.07 | 0.80 | −1.14 | 0.40 | 0.73 | 11.22 | 8.89 | 9.69 | 8.55 | 9.29 | 1.09 | −0.66 | 0.48 | 0.05 | 10.67 | 11.75 | 11.10 | 11.15 | Modulation (ratio of the level of intensity of expression in log2 at two stages of differentiation), FC − D7 [3]: −0.66 log2; Modulation (ratio of the level of intensity of expression in log2 at two stages of differentiation), WD − FC [3]: 0.05 log2

From patent US9023821B2, “Use of MicroRNA for treating diseases associated with a dysfunction of the cilia in multiciliated epithelial cells” (Centre National de la Recherche Scientifique, priority 2009, dated 2015)
